This is an account of results in patent publication US8338472B2, “Hexahydrocyclopentyl[F]indazole carboxamides and derivatives thereof as selective glucocorticoid receptor modulators” (Merck Sharp & Dohme Corp., priority 2008, dated 2012).

pEC50, pKi: −log10 of the molar value. Where two headings read alike, the source gives them in different places.

The target of assay [1] is T1, glucocorticoid receptor (GR) (Homo sapiens, UniProt P04150).
T1 sequence (P04150 1-777): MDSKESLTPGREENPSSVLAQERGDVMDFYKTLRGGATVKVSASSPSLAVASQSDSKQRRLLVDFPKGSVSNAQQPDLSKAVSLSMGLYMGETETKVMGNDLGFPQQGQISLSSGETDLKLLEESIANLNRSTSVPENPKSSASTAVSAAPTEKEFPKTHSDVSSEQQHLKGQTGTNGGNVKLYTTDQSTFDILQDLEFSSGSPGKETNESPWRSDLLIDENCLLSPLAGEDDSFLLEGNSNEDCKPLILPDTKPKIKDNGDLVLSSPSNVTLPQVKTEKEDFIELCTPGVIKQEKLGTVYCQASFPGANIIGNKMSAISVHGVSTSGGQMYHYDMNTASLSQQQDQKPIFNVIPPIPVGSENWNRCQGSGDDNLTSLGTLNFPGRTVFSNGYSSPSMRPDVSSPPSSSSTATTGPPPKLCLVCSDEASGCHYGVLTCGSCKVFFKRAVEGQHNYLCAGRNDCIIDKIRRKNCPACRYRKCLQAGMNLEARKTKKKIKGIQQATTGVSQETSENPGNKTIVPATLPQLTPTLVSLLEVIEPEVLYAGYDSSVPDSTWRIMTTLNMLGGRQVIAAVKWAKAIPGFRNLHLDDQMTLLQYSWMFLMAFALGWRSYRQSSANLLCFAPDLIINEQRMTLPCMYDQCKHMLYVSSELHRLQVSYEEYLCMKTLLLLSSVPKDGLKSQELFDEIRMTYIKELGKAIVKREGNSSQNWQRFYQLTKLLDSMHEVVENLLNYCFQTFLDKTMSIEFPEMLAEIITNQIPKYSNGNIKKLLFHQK
Description: Ligand binding assay (GR BIND), 3H-dexamethasone displacement in MDA-MB-453 cell lysate. The following applies: GR BIND Ki, Table 1.
Description: Binding Buffer: TEGM (10 mM Tris-HCl, 1 mM EDTA, 10% glycerol, 1 mM beta-mecaptoethanol, 10 mM Sodium Molybdate, pH 7.2)
50% HAP Slurry: Calbiochem Hydroxylapatite, Fast Flow, in 10 mM Tris, pH 8.0 and 1 mM EDTA.
Wash Buffer: 40 mM Tris, pH7.5, 100 mM KCl, 1 mM EDTA and 1 mM EGTA.
Dexmethasone-methyl-^3H, (DEX*); (Amersham cat# TRK645)
Dexamethasone(DEX) (Sigma, cat# D1756):
The cell pellet is washed twice with TEGM (10 mM Tris-HCl, 1 mM EDTA, 10% glycerol, 1 mM beta-mercaptoethanol, 10 mM Sodium Molybdate, pH 7.2). After the final wash, the cells are resuspended in TEGM at a concentration of 10^7 cells/mL. The cell suspension is snap frozen in liquid nitrogen or ethanol/dry ice bath and transferred to −80° C. freezer on dry ice. Before setting up the binding assay, the frozen samples are left on ice-water to just thaw (˜1 hr). Then the samples are centrifuged at 12,500 g to 20,000 g for 30 min at 4° C. The supernatant is used to set-up assay right away. If using 50 μL of supernatant, the test compound can be prepared in 50 μL of the TEGM buffer.
Procedure for Multiple Compound Screening
1×TEGM buffer is prepared, and the isotope-containing assay mixture is prepared in the following order: EtOH (2% final concentration in reaction), ^3H-DEX (Amersham Biosciences) and 1×TEGM. [e.g. For 100 samples, 200 μL (100×2) of EtOH+4.25 μL of 1:10 ^3H-Dex stock+2300 μL (100×23) 1×TEGM]. The compound is serially diluted, e.g., if starting final conc. is 1 μM, and the compound is in 25 μL of solution, for duplicate samples, 75 μL of 4×1 μM solution is made and 3 μL of 100 μM is added to 72 μL of buffer, and 1:5 serial dilution.
25 μL of ^3H-DEX (6 nM) trace and 25 μL compound solution are first mixed together, followed by addition of 50 μL receptor solution. The reaction is gently mixed, spun briefly at about 200 rpm and incubated at 4° C. overnight. 100 μL of 50% HAP slurry is prepared and added to the incubated reaction which is then vortexed and incubated on ice for 5 to 10 minutes. The reaction mixture is vortexed twice more to resuspend HAP while incubating reaction. The samples in 96-well format are then washed in wash buffer using The FilterMate™ Universal Harvester plate washer (Packard). The washing process transfers HAP pellet containing ligand-bound expressed receptor to Unifilter-96 GF/B filter plate (Packard). The HAP pellet on the filter plate is incubated with 50 μL of MICROSCINT (Packard) scintillint for 30 minutes before being counted on the TopCount microscintillation counter (Packard). IC50s are calculated using DEX as a reference.

The target of assay [2] is T2, human GR (Homo sapiens, UniProt P04150).
T2 construct: U937 cells contain an endogenous glucocorticoid receptor (GR); endogenous in cells; host or cells: U937 cells stably transfected with the TNF-alpha promoter/beta-lactamase reporter
T2 sequence (P04150 1-777): T1 sequence (P04150 1-777)
Description: Transrepression Assay (GITAR), TNFα-β-lactamase reporter gene in U937 cells. In kind it is cell-based. The following applies: for GITAR Greater than by GRAMMER % SEP: GITAR Emax minus GRAMMER Emax; for pEC50: inflection point, read-out: Transrepression U937 Cells GITAR IP. The essentials: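 Repression of PMA (5 ng/ml final)/LPS (100 ng/ml final)-induced TNF-α promoter activity, read as β-lactamase cleavage of CCF2-AM, in stably transfected U937 cells expressing native GR. Compound added 30-45 min before stimulation, overnight (~18 hr) 37° C; normalized to 100 nM dexamethasone (100%).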

The target in assay [3] is T3, Glucocorticoid Receptor (Homo sapiens, UniProt P04150).
T3 construct: These cells express large amount of the GR and are very responsive to GC treatment; endogenous in cells; host or cells: A549 cells transiently transfected with the MMTV-LUC reporter
T3 sequence (P04150 1-777): T1 sequence (P04150 1-777)
Kind of assay: Trans-Activation Modulation of Glucocorticoid Receptor (GRAMMER), MMTV-LUC reporter gene in A549 cells. In kind it is cell-based. The following applies: Table 1; for Emax: A549, A549 cells, read-out: Transactivation A549 Cells GRAMMER Emax; for pEC50: inflection point, read-out: Transactivation A549 Cells GRAMMER IP. In outline:
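Luciferase from a transiently transfected MMTV-LUC reporter was measured after 24 h compound exposure (≤1% DMSO) in A549 or MDA-MB-453 cells. For antagonism, the decrease of 10 nM dexamethasone-induced signal was calculated. For agonism, Emax was referenced to 300 nM dexamethasone.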

Setting [4] is: U-937, U937 cells, activity repressed by 100 nM dexamethasone = 100%, Table 1, read-out: Transrepression U937 Cells GITAR Emax.
Where [5] appears, read: U-937, text statement, 100 nM dexamethasone = 100%, read-out: maximal activity in the transrepression assay (GITAR).
Where [6] appears, read: Emax relative to 300 nM dexamethasone.

Turning to `C[C@]12Cc3cnn(-c4ccc(F)cc4)c3C=C1CC[C@@H]2C(=O)N(CCO)Cc1ccccc1F` [Compound 25, (4α,5S)-N-(2-fluorobenzyl)-1-(4-fluorophenyl)-N-(2-hydroxyethyl)-4α-methyl-1,4,4α,5,6,7-hexahydrocyclopenta[f]indazole-5-carboxamide], the pKi in assay [1] is 7.90. The “GITAR Greater than by GRAMMER % SEP” value in assay [2] (Table 1) is given as 38.7%. In addition, the results for the Emax in assay [2] (setting [4]), in assay [2] (setting [5]) and in assay [3] (setting [6]) were 48%, more than 5% and 9.3%, respectively. For the same compound, the pEC50 in assay [2] (U937 cells, Table 1) is 5.56; in assay [3] (A549 cells) it was 5.84.

In turn, `C[C@]12Cc3cnn(-c4ccc(F)cc4)c3C=C1CC[C@@H]2C(=O)N(CCO)Cc1cc(F)c(F)c(F)c1` [Compound 28, (4αR,5S)-1-(4-fluorophenyl)-N-(2-hydroxyethyl)-4α-methyl-N-(3,4,5-trifluorobenzyl)-1,4,4α,5,6,7-hexahydrocyclopenta[f] indazole-5-carboxamide] gave a negative logarithm of the Ki (pKi) in assay [1] of 8.05. Moreover, the “GITAR Greater than by GRAMMER % SEP” value in assay [2] (Table 1) is 45.4%. Further, the Emax in assay [2] (setting [4]) was 56%; in assay [2] (setting [5]), more than 5%; in assay [3] (setting [6]), 10.6%. For the same compound, the pEC50 is 5.89 in assay [2] (U937 cells, Table 1) and 5.91 in assay [3] (A549 cells).

In assay [1], `C[C@]12Cc3cnn(-c4ccc(F)cc4)c3C=C1CC[C@@H]2C(=O)N(CCO)Cc1cccc(F)c1` [Compound 33, (4αR,5S)-N-(3-fluorobenzyl)-1-(4-fluorophenyl)-N-(2-hydroxyethyl)-4α-methyl-1,4,4α,5,6,7-hexahydrocyclopenta[f]indazole-5-carboxamide] gave a negative-log Ki (pKi) of 8.11. For the same compound, in assay [2] (Table 1), the “GITAR Greater than by GRAMMER % SEP” value stood at 44.1%. The Emax in assay [2] (setting [4]) is 56.3%; in assay [2] (setting [5]), more than 5%; in assay [3] (setting [6]) it was 12.2%. Besides, the pEC50 was 5.82 in assay [2] (U937 cells, Table 1) and 6.05 in assay [3] (A549 cells).

In turn, `C[C@]12Cc3cnn(-c4ccccc4)c3C=C1CC[C@@H]2C(=O)N(CC1CC1)CC(O)C(F)(F)F` (stereo partly drawn) [Compound 81, (4αR,5S)-N-(cyclopropylmethyl)-4α-methyl-1-phenyl-N-(3,3,3-trifluoro-2-hydroxypropyl)-1,4,4α,5,6,7-hexahydrocyclopenta[f]indazole-5-carboxamide] gave a negative-log Ki (pKi) in assay [1] of 8.44. Besides, the “GITAR Greater than by GRAMMER % SEP” value in assay [2] (Table 1) is reported as 7.8%. For the same compound, the figures for the Emax in assay [2] (setting [4]), in assay [2] (setting [5]) and in assay [3] (setting [6]) were 75.6%, more than 5% and 67.8%, respectively. In addition, the pEC50 in assay [2] (U937 cells, Table 1) is 6.47; in assay [3] (A549 cells), 6.53.

Turning to `CCCCN(CCO)C(=O)[C@H]1CCC2=Cc3c(cnn3-c3ccc(F)cc3)C[C@@]21C` [Compound 26, (4αR,5S)-N-butyl-1-(4-fluorophenyl)-N-(2-hydroxyethyl)-4α-methyl-1,4,4α,5,6,7-hexahydrocyclopenta[f]indazole-5-carboxamide], in assay [1], the pKi was 7.79. The “GITAR Greater than by GRAMMER % SEP” value in assay [2] (Table 1) was 44.1%. The Emax in assay [2] (setting [4]) was 83.4%; in assay [2] (setting [5]) it was more than 5%; in assay [3] (setting [6]), 39.3%. In addition, the pEC50 in assay [2] (U937 cells, Table 1) is 6.09; in assay [3] (A549 cells), 6.09.

For `CN(CC#N)C(=O)[C@H]1CCC2=Cc3c(cnn3-c3ccc(F)cc3)C[C@@]21C` [Compound 41, (4αR,5S)-N-(cyanomethyl)-1-(4-fluorophenyl)-N,4α-dimethyl-1,4,4α,5,6,7-hexahydrocyclopenta[f]indazole-5-carboxamide], the negative logarithm of the Ki (pKi) in assay [1] is 7.35. The “GITAR Greater than by GRAMMER % SEP” value in assay [2] (Table 1) was 35.4%. Further, the values for the Emax in assay [2] (setting [4]), in assay [2] (setting [5]) and in assay [3] (setting [6]) were 41%, more than 5% and 5.6%, respectively. Also, the pEC50 was 5.63 in assay [2] (U937 cells, Table 1) and 5.39 in assay [3] (A549 cells).

Compound `C[C@]12Cc3cnn(-c4ccc(F)cc4)c3C=C1CC[C@@H]2C(=O)N(CCc1ccccc1F)CC(O)CC(F)(F)F` (stereo partly drawn) [Compound 95, (4αR,5S)-1-(4-fluorophenyl)-N-[2-(2-fluorophenyl)ethyl]-4α-methyl-N-(4,4,4-trifluoro-2-hydroxybutyl)-1,4,4α,5,6,7-hexahydrocyclopenta[f]indazole-5-carboxamide] gave a negative logarithm of the Ki (pKi) in assay [1] of 9.00. Moreover, the “GITAR Greater than by GRAMMER % SEP” value in assay [2] (Table 1) is recorded as 7.3%. The “Transrepression U937 Cells GITAR Emax” value in assay [2] (U937 cells, activity repressed by 100 nM dexamethasone = 100%, Table 1) is 54.2%. In addition, the pEC50 in assay [2] (U937 cells, Table 1) is 6.55; in assay [3] (A549 cells) it was 6.43. Moreover, the “Transactivation A549 Cells GRAMMER Emax” value in assay [3] (A549 cells, Emax relative to 300 nM dexamethasone) came to 46.9%.

Regarding `C[C@H](O)CN(CCC(F)(F)F)C(=O)[C@H]1CCC2=Cc3c(cnn3-c3ccc(F)cc3)C[C@@]21C` [Compound 73, (4αR,5S)-1-(4-fluorophenyl)-N-[(2S)-2-hydroxypropyl]-4α-methyl-N-(3,3,3-trifluoropropyl)-1,4,4α,5,6,7-. hexahydrocyclopenta[f]indazole-5-carboxamide], in assay [1], the pKi was 8.68. In assay [2] (Table 1), the “GITAR Greater than by GRAMMER % SEP” value is 18.4%. For the same compound, the Emax in assay [2] (setting [4]) was 89.5%; in assay [2] (setting [5]), more than 5%; in assay [3] (setting [6]), 71.1%. Moreover, the pEC50 was 6.86 in assay [2] (U937 cells, Table 1) and 6.82 in assay [3] (A549 cells).

On to `C[C@]12Cc3cnn(-c4ccc(F)cc4)c3C=C1CC[C@@H]2C(=O)N1CCCC(=O)CC1` [Compound 15, 1-{[(4αR,5S)-1-(4-fluorophenyl)-4α-methyl-1,4,4α,5,6,7-hexahydrocyclopenta[f]indazol-5-yl]carbonyl}azepan-4-one], for which the pKi in assay [1] is 6.92. For the same compound, the “GITAR Greater than by GRAMMER % SEP” value in assay [2] (Table 1) is 7.2%. Moreover, the results for the Emax in assay [2] (setting [4]), in assay [2] (setting [5]) and in assay [3] (setting [6]) were 12.5%, more than 5% and 5.3%, respectively. Also, the pEC50 in assay [2] (U937 cells, Table 1) is 5.47; in assay [3] (A549 cells) it was 5.81.

Compound `C[C@]12Cc3cnn(-c4ccc(F)cc4)c3C=C1CC[C@@H]2C(=O)N(CCO)c1ccccc1` [Compound 68, (4αR,5S)-1-(4-fluorophenyl)-N-(2-hydroxyethyl)-4α-methyl-N-phenyl-1,4,4α,5,6,7-hexahydrocyclopenta[f]indazole-5-carboxamide] showed a negative-log Ki (pKi) in assay [1] of 8.42. Moreover, in assay [2] (Table 1), the “GITAR Greater than by GRAMMER % SEP” value is on record as 14.4%. In addition, the Emax in assay [2] (setting [4]) was 18.2%; in assay [2] (setting [5]) it was more than 5%; in assay [3] (setting [6]), 3.8%. The pEC50 in assay [2] (U937 cells, Table 1) was 5.99; in assay [3] (A549 cells), 6.89.

In assay [1], `CC(C)CN(CC(C)C)C(=O)[C@H]1CCC2=Cc3c(cnn3-c3ccc(F)cc3)C[C@@]21C` [Compound 11, (4αR,5S)-1-(4-fluorophenyl)-N,N-diisobutyl-4α-methyl-1,4,4α,5,6,7-hexahydrocyclopenta[f]indazole-5-carboxamide] had a pKi of 8.77. In addition, the “GITAR Greater than by GRAMMER % SEP” value in assay [2] (Table 1) came out at 22.2%. For the same compound, the Emax was 67.5% in assay [2] (setting [4]), more than 5% in assay [2] (setting [5]) and 45.3% in assay [3] (setting [6]). For the same compound, the pEC50 in assay [2] (U937 cells, Table 1) was 6.48; in assay [3] (A549 cells), 6.75.

As to `C[C@]12Cc3cnn(-c4ccc(F)cc4)c3C=C1CC[C@@H]2C(=O)N(CC1CCC1)CC1CCCO1` (stereo partly drawn) [Compound 64, (4αR,5S)-N-(cyclobutylmethyl)-1-(4-fluorophenyl)-4α-methyl-N-(tetrahydrofuran-2-ylmethyl)-1,4,4α,5,6,7-hexahydrocyclopenta[f]indazole-5-carboxamide], the pKi in assay [1] was 8.72. The “GITAR Greater than by GRAMMER % SEP” value in assay [2] (Table 1) was determined as 9.5%. The Emax in assay [2] (setting [4]) was 36.6%; in assay [2] (setting [5]), more than 5%; in assay [3] (setting [6]), 27.1%. The pEC50 is 6.32 in assay [2] (U937 cells, Table 1) and 6.17 in assay [3] (A549 cells).

Broadly, the pKi is the negative decadic logarithm of the Ki, by convention in mol/L. Low values mean a large Ki, high ones a small Ki.
